# From patent publication US20210122781A1, “STAPLED PEPTIDES” (Agency for Science, Technology and Research, priority 2017, published 2021)
# “Also recorded” adds a separate entry of the source. Bridge positions count the residues as written; N and C are the ends. Square brackets hold non-standard residues; d marks the D form. Peptide text beside a SMILES is read from it. R8 = C=CCCCCCC[C@@](C)(N)C(=O)O; S5 = C=CCCC[C@](C)(N)C(=O)O; Ahx = NCCCCCC(=O)O
# How the values were obtained:
# p53 protein levels = test: p53 staining of spleens from p53 wild type mice after IP injection of peptide; format: in vivo; conditions: normal p53 wild type mice, 40 mg/kg IP, spleens harvested 5 hours post injection, late- vs early-eluting isomer
# Description: FIG. 5. Spleen samples of wildtype-p53 mice harvested 5 hours after intraperitoneal injection with either DMSO (vehicle) or the early or late eluting isomer of stapled peptides VIP82, VIP115 or VIP116. […] A subset of the peptide analogues was subsequently assessed for their ability to stabilise p53 protein levels in proliferating cells. In particular, lysine-containing peptides were chosen due to their enhanced solubility in biological buffers. Normal p53 wild type mice were administered with either vehicle (DMSO) or 40 mg/kg of peptide via IP. Spleens were then harvested 5 hours post injection and histological samples were processed for p53 staining (FIG. 5).
# p53 stabilization = test: p53 IHC staining of spleen and tumour from C57BL/6 mice bearing B16F10 melanoma allograft; format: in vivo; conditions: C57BL/6 mice with B16F10 melanoma allograft, 40 mg/kg intraperitoneal, harvested 6 hours post injection, listed as VIP116 late-eluting isomer
# Description: FIG. 6. Photomicrographs of (A) spleen and (B) tumour samples from C57BL/6 mice after treatment with DMSO vehicle or p53-stabilising stapled peptide isomers VIP116 (both early-eluting and late-eluting isomers) and ATSP-7041 (late-eluting isomer only).
# The stapled peptides VIP116 (both early-eluting and late-eluting isomers) and ATSP-7041 (late-eluting isomer) were injected into C57BL/6 mice bearing an allograft tumour (B16F10 melanoma cells) via intraperitoneal injection at a dose of 40 mg/kg. The spleen and tumour were both harvested from the mice 6 hours post injection. The p53 stabilization was detected and visualised in harvested tissue samples by p53 IHC staining (FIG. 6). A vehicle (2% DMSO in HBSS buffer) was used as a control.
compound,measurement,setting,value
CC(=O)N[C@@H](CCCCN)C(=O)N[C@@H](CCCCN)C(=O)NCCCCCC(=O)N[C@H](C(=O)N[C@@H](CO)C(=O)N[C@@H](Cc1ccccc1)C(=O)N[C@]1(C)CCCCCC/C=C/CCC[C@@](C)(C(=O)N[C@@H](CCC(=O)O)C(=O)N[C@@H](CC(N)=O)C(=O)N[C@@H](Cc2ccccc2)C(N)=O)NC(=O)[C@H](CC(C)C)NC(=O)[C@H](CC(C)C)NC(=O)[C@H](C)NC(=O)[C@H](Cc2c[nH]c3ccccc23)NC(=O)[C@H](Cc2ccc(O)cc2)NC(=O)[C@H](CCC(=O)O)NC1=O)[C@@H](C)O [VIP82-Late] (Ac-KK[Ahx]TSF[R8]EYWALL[S5]ENF-NH2; staple (E) 7-14),p53 protein level / expression in spleen (p53 staining),"p53 protein levels; listed as VIP82 late eluting isomer, 40 mg/kg",higher in the late eluting isomer
same,p53 protein level / expression in spleen (p53 staining),"p53 protein levels; listed as VIP82 late-eluting isomer, 40 mg/kg",higher concentration of p53 in mouse tissues compared to the early-eluting isomer
CC(=O)N[C@@H](CCCCN)C(=O)N[C@@H](CCCCN)C(=O)N[C@@H](CCCCN)C(=O)NCCCCCC(=O)N[C@H](C(=O)N[C@@H](CO)C(=O)N[C@@H](Cc1ccccc1)C(=O)N[C@]1(C)CCCCCC/C=C/CCC[C@@](C)(C(=O)N[C@@H](CCC(=O)O)C(=O)N[C@@H](CC(N)=O)C(=O)N[C@@H](Cc2ccccc2)C(N)=O)NC(=O)[C@H](CC(C)C)NC(=O)[C@H](CC(C)C)NC(=O)[C@H](C)NC(=O)[C@H](Cc2c[nH]c3ccccc23)NC(=O)[C@H](Cc2ccc(O)cc2)NC(=O)[C@H](CCC(=O)O)NC1=O)[C@@H](C)O [VIP115-Late] (Ac-KKK[Ahx]TSF[R8]EYWALL[S5]ENF-NH2; staple (E) 8-15),p53 protein level / expression in spleen (p53 staining),"p53 protein levels; listed as VIP115 late eluting isomer, 40 mg/kg",higher in the late eluting isomer
same,p53 protein level / expression in spleen (p53 staining),"p53 protein levels; listed as VIP115 late-eluting isomer, 40 mg/kg",higher concentration of p53 in mouse tissues compared to the early-eluting isomer
CC(=O)N[C@@H](CCCCN)C(=O)NCCCCCC(=O)N[C@H](C(=O)N[C@@H](CO)C(=O)N[C@@H](Cc1ccccc1)C(=O)N[C@]1(C)CCCCCC/C=C/CCC[C@@](C)(C(=O)N[C@@H](CCC(=O)O)C(=O)N[C@@H](CC(N)=O)C(=O)N[C@@H](Cc2ccccc2)C(N)=O)NC(=O)[C@H](CC(C)C)NC(=O)[C@H](CC(C)C)NC(=O)[C@H](C)NC(=O)[C@H](Cc2c[nH]c3ccccc23)NC(=O)[C@H](Cc2ccc(O)cc2)NC(=O)[C@H](CCC(=O)O)NC1=O)[C@@H](C)O [VIP116-Late],p53 protein level / expression in spleen (p53 staining),p53 protein levels,as active as the early-isomer
same,p53 activation response (p53 IHC staining) in spleen and tumour,p53 stabilization,higher p53 activation response in both spleen and tumour samples; also recorded: more potent than the late-eluting isomer of ATSP-7041
